Assay results reported in ChEMBL document CHEMBL1201862, “PubChem BioAssay data set” (2004).
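Grown in 96-well plates, cells were treated for 48 hours with each compound at five concentrations. Insufficient inhibition: endpoint recorded as highest concentration tested. GI50 marks 50% less growth.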 Calls of active or inactive are those of the source. No stated cut-off is given here; in the data, active = GI50 up to about 1.1 µM and inactive = higher.

What was measured:
Assay in all cases: NCI-60 cell line screen, 48 h
KM-20L2 = test system: KM-20L2
MDA-MB-231 = test system: MDA-MB-231
RXF 393 = test system: RXF 393
SW-620 = test system: SW-620
SR = test system: SR
M14 = test system: M14
Hs-578T = test system: Hs-578T
SNB-19 = test system: SNB-19
T47D = test system: T47D
SK-MEL-28 = test system: SK-MEL-28
MDA-N = test system: MDA-N
RPMI-8226 = test system: RPMI-8226
NCI-H522 = test system: NCI-H522
UO-31 = test system: UO-31
OVCAR-5 = test system: OVCAR-5
PC-3 = test system: PC-3
DMS-114 = test system: DMS-114
CAKI-1 = test system: CAKI-1
COLO 205 = test system: COLO 205
U-251 = test system: U-251
OVCAR-3 = test system: OVCAR-3
DLD-1 = test system: DLD-1
UACC-257 = test system: UACC-257
TK-10 = test system: TK-10
SK-MEL-5 = test system: SK-MEL-5
SK-MEL-2 = test system: SK-MEL-2
NCI-H23 = test system: NCI-H23
A549 = test system: A549
SF-539 = test system: SF-539
HCT-15 = test system: HCT-15
A498 = test system: A498
SF-295 = test system: SF-295
SNB-75 = test system: SNB-75
DMS-273 = test system: DMS-273
KM12 = test system: KM12
786-0 = test system: 786-0
LOX IMVI = test system: LOX IMVI
K562 = test system: K562
MDA-MB-435 = test system: MDA-MB-435
RXF 631 = test system: RXF 631
HL-60 = test system: HL-60
OVCAR-4 = test system: OVCAR-4
HOP-92 = test system: HOP-92
DU-145 = test system: DU-145
SN12C = test system: SN12C
ACHN = test system: ACHN
NCI-H226 = test system: NCI-H226
UACC-62 = test system: UACC-62
LXFL 529 = test system: LXFL 529
IGROV-1 = test system: IGROV-1
SF-268 = test system: SF-268
HCC 2998 = test system: HCC 2998
M19-MEL = test system: M19-MEL
OVCAR-8 = test system: OVCAR-8
MCF7 = test system: MCF7
Malme-3M = test system: Malme-3M
SNB-78 = test system: SNB-78
SK-OV-3 = test system: SK-OV-3
HCT-116 = test system: HCT-116
HOP-18 = test system: HOP-18
HOP-62 = test system: HOP-62
NCI/ADR-RES = test system: NCI/ADR-RES
MOLT-4 = test system: MOLT-4
NCI-H460 = test system: NCI-H460
XF498 = test system: XF498
CCRF-CEM = test system: CCRF-CEM
HT-29 = test system: HT-29

With `CCCC/C=C1/CCC(CN(C)C)C1=O` (configuration not stated) the GI50 (KM-20L2) was 2.54 µM (inactive), the GI50 (MDA-MB-231) was 2.82 µM (inactive) and the GI50 (RXF 393) was 1.77 µM (inactive). The GI50 (SW-620) was 1.14 µM (inactive), the GI50 (SR) was 0.456 µM (active) and the GI50 (M14) was 1.71 µM (inactive). For the same compound, the GI50 (Hs-578T) was 3.18 µM (inactive), the GI50 (SNB-19) was 5.97 µM (inactive) and the GI50 (T47D) was 1.31 µM (inactive). For the same compound, the GI50 (SK-MEL-28) was 1.92 µM (inactive), the GI50 (MDA-N) was 2.42 µM (inactive) and the GI50 (RPMI-8226) was 0.0968 µM (active). The GI50 (NCI-H522) was 0.656 µM (active), the GI50 (UO-31) was 2.3 µM (inactive) and the GI50 (OVCAR-5) was 6.01 µM (inactive). The GI50 (PC-3) was 14.1 µM (inactive), the GI50 (DMS-114) was 1.29 µM (inactive) and the GI50 (CAKI-1) was 0.745 µM (active). For the same compound, the GI50 (COLO 205) was 1.42 µM (inactive), the GI50 (U-251) was 1.97 µM (inactive) and the GI50 (OVCAR-3) was 1.94 µM (inactive). For the same compound, the GI50 (DLD-1) was 0.863 µM (active), the GI50 (UACC-257) was 2.17 µM (inactive) and the GI50 (TK-10) was 1.01 µM (active). For the same compound, the GI50 (SK-MEL-5) was 9.02 µM (inactive), the GI50 (SK-MEL-2) was 4.49 µM (inactive) and the GI50 (NCI-H23) was 3.41 µM (inactive). For the same compound, the GI50 (A549) was 6.58 µM (inactive), the GI50 (SF-539) was 2.48 µM (inactive) and the GI50 (HCT-15) was 0.401 µM. For the same compound, the GI50 (A498) was 8.77 µM (inactive), the GI50 (SF-295) was 6.71 µM (inactive) and the GI50 (SNB-75) was 3.21 µM (inactive). The GI50 (DMS-273) was 2.71 µM (inactive), the GI50 (KM12) was 0.673 µM (active) and the GI50 (786-0) was 1.55 µM (inactive). For the same compound, the GI50 (LOX IMVI) was 1.39 µM (inactive), the GI50 (K562) was 0.701 µM (active) and the GI50 (MDA-MB-435) was 11 µM (inactive). For the same compound, the GI50 (RXF 631) was 1.65 µM (inactive), the GI50 (HL-60) was 0.885 µM (active) and the GI50 (OVCAR-4) was 1.92 µM (inactive). For the same compound, the GI50 (HOP-92) was 2.07 µM (inactive), the GI50 (DU-145) was 15.6 µM (inactive) and the GI50 (SN12C) was 1.87 µM (inactive). The GI50 (ACHN) was 2.05 µM (inactive), the GI50 (NCI-H226) was 11.1 µM (inactive) and the GI50 (UACC-62) was 2.09 µM (inactive). The GI50 (LXFL 529) was 0.625 µM (active), the GI50 (IGROV-1) was 3.98 µM (inactive) and the GI50 (SF-268) was 2.47 µM (inactive). For the same compound, the GI50 (HCC 2998) was 1.56 µM (inactive), the GI50 (M19-MEL) was 1.41 µM (inactive) and the GI50 (OVCAR-8) was 1.83 µM (inactive). The GI50 (MCF7) was 0.525 µM (active), the GI50 (Malme-3M) was 1.98 µM (inactive) and the GI50 (SNB-78) was 2.3 µM (inactive). The GI50 (SK-OV-3) was 12.9 µM (inactive), the GI50 (HCT-116) was 1.84 µM (inactive) and the GI50 (HOP-18) was 2.22 µM (inactive). The GI50 (HOP-62) was 20 µM (inactive) and the GI50 (NCI/ADR-RES) was 2.64 µM (inactive).

For `COc1cc([C@H]2Oc3c(c(O)cc4oc(-c5ccccc5)cc(=O)c34)O[C@@H]2CO)ccc1O`, the GI50 (SR) was 8.87 µM (inactive), the GI50 (M14) was 17.5 µM (inactive) and the GI50 (SK-MEL-28) was 45.8 µM (inactive). The GI50 (RPMI-8226) was 7.53 µM (inactive), the GI50 (NCI-H522) was 19.1 µM (inactive) and the GI50 (UO-31) was 31.9 µM (inactive). The GI50 (DMS-114) was 20 µM (inactive), the GI50 (CAKI-1) was 63.2 µM (inactive) and the GI50 (COLO 205) was 31.8 µM (inactive). The GI50 (DLD-1) was 16.6 µM (inactive), the GI50 (SK-MEL-2) was 22.8 µM (inactive) and the GI50 (NCI-H23) was 38.5 µM (inactive). The GI50 (SF-539) was > 100 µM (inactive), the GI50 (A498) was 67 µM (inactive) and the GI50 (MOLT-4) was > 10 µM (inactive). For the same compound, the GI50 (SNB-75) was 28.9 µM (inactive), the GI50 (DMS-273) was 8.83 µM (inactive) and the GI50 (786-0) was 21.9 µM (inactive). For the same compound, the GI50 (K562) was 21.6 µM (inactive), the GI50 (RXF 631) was 23.8 µM (inactive) and the GI50 (HL-60) was 13.7 µM (inactive). The GI50 (OVCAR-4) was 23.8 µM (inactive), the GI50 (NCI-H460) was 5.14 µM (inactive) and the GI50 (HOP-92) was 31.7 µM (inactive). For the same compound, the GI50 (SN12C) was 35.9 µM (inactive), the GI50 (XF498) was 25.4 µM (inactive) and the GI50 (NCI-H226) was 71.1 µM (inactive). For the same compound, the GI50 (UACC-62) was 29.9 µM (inactive), the GI50 (CCRF-CEM) was 4.34 µM (inactive) and the GI50 (LXFL 529) was 24.3 µM (inactive). The GI50 (IGROV-1) was 51.8 µM (inactive), the GI50 (SF-268) was 11.7 µM (inactive) and the GI50 (HCC 2998) was 25.6 µM (inactive). The GI50 (M19-MEL) was 24.7 µM (inactive), the GI50 (Malme-3M) was 24.2 µM (inactive) and the GI50 (SNB-78) was > 100 µM (inactive). For the same compound, the GI50 (SK-OV-3) was 84.9 µM (inactive), the GI50 (HCT-116) was 21.5 µM (inactive) and the GI50 (HOP-62) was > 100 µM (inactive).

In the case of `CN(C)/C=C/C(=CC=[N+](C)C)/C=C/N(C)C.[O-][Cl+3]([O-])([O-])[O-]`, the GI50 (RXF 393) is reported as > 100 µM (inactive), the GI50 (SW-620) is reported as > 100 µM (inactive) and the GI50 (SR) is reported as > 100 µM (inactive). The GI50 (M14) was > 100 µM (inactive), the GI50 (SNB-19) was > 100 µM (inactive) and the GI50 (SK-MEL-28) was > 100 µM (inactive). The GI50 (RPMI-8226) was > 100 µM (inactive), the GI50 (NCI-H522) was > 100 µM (inactive) and the GI50 (UO-31) was > 100 µM (inactive). The GI50 (OVCAR-5) was > 100 µM (inactive), the GI50 (CAKI-1) was 70.3 µM (inactive) and the GI50 (U-251) was > 100 µM (inactive). For the same compound, the GI50 (OVCAR-3) was > 100 µM (inactive), the GI50 (DLD-1) was > 100 µM (inactive) and the GI50 (UACC-257) was > 100 µM (inactive). For the same compound, the GI50 (TK-10) was > 100 µM (inactive), the GI50 (SK-MEL-5) was > 100 µM (inactive) and the GI50 (SK-MEL-2) was > 100 µM (inactive). For the same compound, the GI50 (NCI-H23) was > 100 µM (inactive), the GI50 (A549) was > 100 µM (inactive) and the GI50 (SF-539) was > 100 µM (inactive). For the same compound, the GI50 (A498) was 31.3 µM (inactive), the GI50 (SF-295) was > 100 µM (inactive) and the GI50 (MOLT-4) was 90.4 µM (inactive). For the same compound, the GI50 (DMS-273) was > 100 µM (inactive), the GI50 (KM12) was > 100 µM (inactive) and the GI50 (786-0) was > 100 µM (inactive). For the same compound, the GI50 (LOX IMVI) was 57 µM (inactive), the GI50 (K562) was > 100 µM (inactive) and the GI50 (RXF 631) was > 100 µM (inactive). The GI50 (HL-60) was > 100 µM (inactive), the GI50 (OVCAR-4) was > 100 µM (inactive) and the GI50 (NCI-H460) was > 100 µM (inactive). The GI50 (HOP-92) was > 100 µM (inactive), the GI50 (SN12C) was > 100 µM (inactive) and the GI50 (XF498) was > 100 µM (inactive). The GI50 (ACHN) was > 100 µM (inactive), the GI50 (NCI-H226) was > 100 µM (inactive) and the GI50 (UACC-62) was > 100 µM (inactive). For the same compound, the GI50 (CCRF-CEM) was 60.3 µM (inactive), the GI50 (LXFL 529) was > 100 µM (inactive) and the GI50 (HT-29) was > 100 µM (inactive). The GI50 (IGROV-1) was > 100 µM (inactive), the GI50 (SF-268) was > 100 µM (inactive) and the GI50 (HCC 2998) was > 100 µM (inactive). The GI50 (OVCAR-8) was > 100 µM (inactive), the GI50 (Malme-3M) was > 100 µM (inactive) and the GI50 (SNB-78) was > 100 µM (inactive). For the same compound, the GI50 (SK-OV-3) was 16.7 µM (inactive), the GI50 (HCT-116) was > 100 µM (inactive) and the GI50 (HOP-62) was > 100 µM (inactive).
